Where two headings read alike, the source gives them in different places.
Legend:
muscarinic M3 receptor = target: T1, muscarinic M3 receptor (Cavia porcellus, UniProt H0W1Z3); assay: Muscarinic M3 antagonistic action in isolated guinea pig trachea (carbachol-induced contraction, Schild method); assay type: cell-based; settings: compound applied 15 minutes before carbachol
T1 construct: trachea was excised, and cut at every two tracheal cartilages to prepare tissue specimens; from tissue; host or cells: isolated guinea pig trachea (male Hartley)
T1 sequence (H0W1Z3 1-590): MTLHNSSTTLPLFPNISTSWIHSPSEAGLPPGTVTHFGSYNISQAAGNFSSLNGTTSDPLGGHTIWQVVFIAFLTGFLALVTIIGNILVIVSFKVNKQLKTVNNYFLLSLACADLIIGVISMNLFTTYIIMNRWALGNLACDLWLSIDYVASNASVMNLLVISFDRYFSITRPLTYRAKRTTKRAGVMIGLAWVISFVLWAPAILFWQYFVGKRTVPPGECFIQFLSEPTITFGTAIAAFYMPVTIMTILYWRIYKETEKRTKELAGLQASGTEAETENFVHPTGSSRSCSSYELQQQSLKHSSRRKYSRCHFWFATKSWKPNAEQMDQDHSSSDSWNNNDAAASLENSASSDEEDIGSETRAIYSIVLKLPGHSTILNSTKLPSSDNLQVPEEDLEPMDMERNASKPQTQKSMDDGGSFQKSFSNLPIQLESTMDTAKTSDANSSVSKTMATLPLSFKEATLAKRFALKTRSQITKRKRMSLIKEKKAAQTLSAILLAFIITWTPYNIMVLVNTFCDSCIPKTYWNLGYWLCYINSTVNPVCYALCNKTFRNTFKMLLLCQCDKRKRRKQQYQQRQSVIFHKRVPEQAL
Description: Muscarinic M3 Antagonistic Action in Isolated Guinea Pig Trachea
Male Hartley guinea pigs (350 to 600 g) were sacrificed by bleeding, and trachea was excised, and cut at every two tracheal cartilages to prepare tissue specimens. Each tissue specimen was kept warm at 37° C., suspended with a resting tension of 1 g in a 5-mL Magnus bath filled with a Krebs carbonate buffer containing indomethacin (1 μM) bubbled with 95% O2/5% CO2, and left for 60 minutes as a stabilization period. […] After the measurement, the tissue specimen was immediately washed, and left for 60 minutes as a stabilization period before the next contraction reaction, and the tissue specimen of which EC50 for the carbachol-induced contraction reaction was stabilized was considered as a control. Each test compound was applied 15 minutes before the addition of carbachol. The affinity (pA2) of the test compound was obtained by the Schild method (Arunlakshana, O. and Schild, H. O., Brit. J. Pharmacol., 1959, 14, 48-58).

[1] = test system: Bronchoconstriction in Guinea Pigs (induced with acetylcholine); assay: Effect on bronchoconstriction in guinea pigs (via inhalation administration), Konzett method; assay type: in vivo; settings: Cavia porcellus, iv; guinea pig, intratracheal administration 10 μL g/head, 24 hours after administration, acetylcholine 4 μg/kg i.v., versus control group; read-out: Percent of inhibition of bronchoconstriction (%)
Description: Effect on Bronchoconstriction in Guinea Pigs (Via Inhalation Administration)
The test was performed according to the method of Konzett et al. (Arch. Exp. Path Pharmak., 1940, 195, 71-74). Male Hartley guinea pigs (350 to 600 g) were anesthetized with urethane (1.8 g/kg, i.p.), and then a cannula for drug administration was inserted into each left jugular vein. After the immobilization with decamethonium (2 mg/kg, i.v.), a tracheal cannula was inserted, and controlled respiration was attained by a respirator (Harvard). Bronchoconstriction was measured as changes of airway pressure with a pressure transducer (Nihon Kohden Corp.). Each test compound was administered (10 μL g/head) from dissected trachea by using a device for intratracheal administration of liquid for guinea pigs (Penn Century), and after suture, the animals were returned to usual breeding. After 24 hours, acetylcholine (4 μg/kg, i.v.) was administered to induce bronchoconstriction, and inhibitory activity on bronchoconstriction was calculated as percent inhibition comparing to the change of airway pressure in control group was obtained.

muscarinic M2 receptor = target: T2, muscarinic M2 receptor (Cavia porcellus, UniProt H0VRN8); assay: Muscarinic M2 antagonistic action in isolated guinea pig left atrium (carbachol-induced relaxation, Schild method); assay type: cell-based; settings: compound applied 30 minutes before carbachol
T2 construct: left atria were excised to prepare tissue specimens; from tissue; host or cells: isolated guinea pig left atrium (male Hartley)
T2 sequence (H0VRN8 1-466): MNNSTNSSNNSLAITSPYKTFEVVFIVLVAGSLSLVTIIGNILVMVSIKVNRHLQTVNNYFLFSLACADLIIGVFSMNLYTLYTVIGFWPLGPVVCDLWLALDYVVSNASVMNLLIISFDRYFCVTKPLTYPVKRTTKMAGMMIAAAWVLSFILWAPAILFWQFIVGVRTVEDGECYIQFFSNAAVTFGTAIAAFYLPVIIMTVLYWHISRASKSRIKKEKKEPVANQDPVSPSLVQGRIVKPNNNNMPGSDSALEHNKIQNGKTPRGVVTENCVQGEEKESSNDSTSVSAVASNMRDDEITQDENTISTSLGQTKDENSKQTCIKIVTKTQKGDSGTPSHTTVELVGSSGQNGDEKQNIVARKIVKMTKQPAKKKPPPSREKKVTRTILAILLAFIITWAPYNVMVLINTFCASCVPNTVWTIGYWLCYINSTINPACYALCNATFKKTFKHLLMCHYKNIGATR
Description: Muscarinic M2 Antagonistic Action in Isolated Guinea Pig Left Atrium […] Each tissue specimen was kept warm at 37° C., suspended with a resting tension of 0.5 g in a 5-mL Magnus bath filled with a Krebs carbonate buffer bubbled with 95% O2/5% CO2. Then, contraction evoked by field electrical stimulation (4 Hz, 2 msec, 1.5×threshold potential) was measured. After a stabilization period of 60 minutes, carbachol-induced relaxation was isometrically measured and recorded by the cumulative method from 10^−8 M with an interval of 90 seconds for one concentration in an equal ratio of 3. After the measurement, the tissue specimen was immediately washed, and left for 45 minutes as a stabilization period before the next observation. The tissue specimen of which EC50 for the carbachol-induced relaxation was stabilized was considered as a control. Each test compound was applied 30 minutes before the addition of carbachol. The affinity (pA2) of the test compound was obtained in the same manner as in the case of the trachea.

[2] = pA2 Trachea M3, isolated guinea pig trachea
[3] = pA2 Left atrium M2, isolated guinea pig left atrium

Row | SMILES | Kb (muscarinic M3 receptor; [2]) | inhibition in vivo at 0.01 mg [1] | Kb (muscarinic M2 receptor; [3]) | Kb (muscarinic M3 receptor; isolated guinea pig trachea, read-out: pA2 Trachea M3 (converted)) | Kb (muscarinic M2 receptor; isolated guinea pig left atrium, read-out: pA2 Left atrium M2 (converted))
1 | COCC[n+]1ccn([C@@H]2CC[C@H](C(C(N)=O)(c3ccccc3)c3ccccc3)C2)c1C [Example 63, 3-((1R,3S)-3-(Carbamoyl(diphenyl)methyl)cyclopentyl)-1-(2-methoxyethyl)-2-methyl-3H-imidazol-1-ium bromide] | 0.316 nM | 100% | 7.94 nM | – | –
2 | CC1=[N+](C)CCN1[C@H]1CC[C@@H](C(C(N)=O)(c2ccccc2)c2ccccc2)C1 (relative stereo) [Example 56, 3-(cis-3-(Carbamoyl(diphenyl)methyl)cyclopentyl)-1,2-dimethyl-4,5-dihydro-3H-imidazol-1-ium iodide] | 2.51 nM | 100% | 31.6 nM | – | –
3 | CC1=[N+](C)CCN1[C@@H]1CC[C@H](C(C(N)=O)(c2ccccc2)c2ccccc2)C1 [Example 60, 3-((1R,3S)-3-(Carbamoyl(diphenyl)methyl)cyclopentyl)-1,2-dimethyl-4,5-dihydro-3H-imidazol-1-ium para-toluenesulfonate] | – | 90% | – | 0.631 nM | 15.8 nM
4 | Cc1n([C@@H]2CC[C@H](C(C(N)=O)(c3ccccc3)c3ccccc3)C2)cc[n+]1Cc1ccccc1 [Example 91, 3-((1R,3S)-3-(Carbamoyl(diphenyl)methyl)cyclopentyl)-1-benzyl-2-methyl-3H-imidazol-1-ium bromide] | 0.1 nM | 100% | 3.98 nM | – | –
